For the assay, the target named is T1, histamine H3 receptor (Homo sapiens, UniProt Q9Y5N1).
T1 construct: expressed in transfected cells; host or cells: CHO K1 cells carrying pSwitch, transfected with pGeneH3 and induced with mifepristone; clone 3H3; membrane preparation
Put plainly: Histamine H3 functional antagonist assay ([35S]GTPγS SPA on membranes). The class given is biochemical. As for the experimental part:
A membrane preparation containing histamine H3 receptors may be prepared in accordance with the following procedures:
Ligated DNA was transformed into competent DH5α E. coli host bacterial cells and plated onto Luria Broth (LB) agar containing Zeocin™ (an antibiotic which allows the selection of cells expressing the sh ble gene which is present on pGene and pSwitch) at 50 μg ml^−1. Colonies containing the religated plasmid were identified by restriction analysis. DNA for transfection into mammalian cells was prepared from 250 ml cultures of the host bacterium containing the pGeneH3 plasmid and isolated using a DNA preparation kit (Qiagen Midi-Prep) as per manufacturers guidelines (Qiagen).
CHO K1 cells previously transfected with the pSwitch regulatory plasmid (InVitrogen) were seeded at 2×10e6 cells per T75 flask in Complete Medium, containing Hams F12 (GIBCOBRL, Life Technologies) medium supplemented with 10% v/v dialysed foetal bovine serum, L-glutamine, and hygromycin (100 μg ml^−1), 24 hours prior to use. Plasmid DNA was transfected into the cells using Lipofectamine plus according to the manufacturers guidelines (InVitrogen). 48 hours post transfection cells were placed into complete medium supplemented with 500 μg ml^−1 Zeocin™.
10-14 days post selection 10 nM Mifepristone (InVitrogen), was added to the culture medium to induce the expression of the receptor.
Approximately 1×10e7 cells were examined for receptor expression by staining with a rabbit polyclonal antibody, 4a, raised against the N-terminal domain of the histamine H3 receptor, incubated on ice for 60 minutes, followed by two washes in sorting medium.
Following two further washes with Sorting Medium, cells were filtered through a 50 μm Filcon™ (BD Biosciences) and then analysed on a FACS Vantage SE Flow Cytometer fitted with an Automatic Cell Deposition Unit. […] Positively stained cells were sorted as single cells into 96-well plates, containing Complete Medium containing 500 μg ml^−1 Zeocin™ and allowed to expand before reanalysis for receptor expression via antibody and ligand binding studies.
All steps of the protocol are carried out at 4° C. and with pre-cooled reagents. The cell pellet is resuspended in 10 volumes of buffer A2 containing 50 mM N-2-hydroxyethylpiperazine-N′-2-ethanesulfonic acid (HEPES) (pH 7.40) supplemented with […] leupeptin (acetyl-leucyl-leucyl-arginal; Sigma L2884), 25 μg/ml bacitracin (Sigma B0125), 1 mM ethylenediamine tetra-acetic acid (EDTA), 1 mM phenylmethylsulfonyl fluoride (PMSF) and 2×10e-6M pepstain A (Sigma). The cells are then homogenised by 2×15 second bursts in a 1 litre glass Waring blender, followed by centrifugation at 500 g for 20 minutes. The supernatant is then spun at 48,000 g for 30 minutes. The pellet is resuspended in 4 volumes of buffer A2 by vortexing for 5 seconds, followed by homogenisation in a Dounce homogeniser (10-15 strokes). At this point the preparation is aliquoted into polypropylene tubes and stored at −70° C. […]
The plate is then incubated on a shaker at room temperature for 30 minutes followed by centrifugation for 5 minutes at 1500 rpm. The plate is read between 3 and 6 hours after completion of centrifuge run in a Wallac Microbeta counter on a 1 minute normalised tritium count protocol. Data is analysed using a 4-parameter logistic equation. Basal activity used as minimum i.e. histamine not added to well.
A general note: GTPγS is a poorly hydrolysed GTP analogue; its binding reports G protein activation.

Where [1] appears, read: membranes of CHO K1 clone 3H3 expressing human histamine H3, histamine 0.3 μM, guanosine 5'[γ35-S]thiotriphosphate 0.38 nM, read-out: pKb (converted).

Where a name gives a salt, the structure may show the parent alone. Read-outs that look alike come from different tables or passages of the source.

T1 sequence (Q9Y5N1 whole entry): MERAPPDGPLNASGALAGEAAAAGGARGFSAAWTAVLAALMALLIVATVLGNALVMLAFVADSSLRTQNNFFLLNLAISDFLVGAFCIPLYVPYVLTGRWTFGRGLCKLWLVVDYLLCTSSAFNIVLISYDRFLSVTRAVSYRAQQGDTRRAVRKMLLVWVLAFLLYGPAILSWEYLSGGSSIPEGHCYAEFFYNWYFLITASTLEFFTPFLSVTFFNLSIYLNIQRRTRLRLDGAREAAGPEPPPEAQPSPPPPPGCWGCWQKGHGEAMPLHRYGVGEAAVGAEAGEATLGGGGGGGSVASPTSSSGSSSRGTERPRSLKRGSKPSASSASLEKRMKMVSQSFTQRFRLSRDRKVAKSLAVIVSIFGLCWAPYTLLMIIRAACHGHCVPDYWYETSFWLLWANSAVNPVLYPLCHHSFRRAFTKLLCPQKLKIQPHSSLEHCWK

For the compound `O=C(c1ccc(OCCCN2CCCCC2)cc1)N1CCCCC1` [Example E149, N-[4-(3-Piperidin-1-ylpropoxy)benzoyl]piperidine Hydrochloride], the Kb under setting [1] is below 3.16 nM. The same measure, in the same setting: in the case of `C[C@@H]1CN(C(=O)c2ccc(OCCCN3CCCCC3)cc2)C[C@H](C)N1C(=O)c1ccccc1` [Example E100] it was below 3.16 nM.

The compound `O=C(c1ccc(OCCCN2CCCCC2)cc1)N1CCN(C(=O)C2CCCCCC2)CC1` [Example E89, 1-[4-(3-Piperidin-1-ylpropoxy)benzoyl]-4-(cycloheptanecarbonyl)-piperazine Hydrochloride] yielded a Kb below 3.16 nM. As to `O=C(N[C@H]1CCN(C(=O)c2ccc(OCCCN3CCCCC3)cc2)C1)c1ccccc1` [Example E156, (S)-N-[4-(3-Piperidin-1-ylpropoxy)benzoyl]-3-benzamidopyrrolidine Dihydrochloride], under setting [1], the Kb was below 3.16 nM.

As for `O=C(c1ccc(OCCCN2CCCCC2)cc1)N1CCC2(CC1)CN(c1ccccc1)C(=O)CO2` [Example E159, 4-Phenyl-9-[4-(3-piperidin-1-ylpropoxy)benzoyl]-1-oxa-4,9-diazaspiro-[5,5]-undecan-3-one hydrochloride], the Kb under setting [1] was below 3.16 nM. Same read-out and setting: as for `O=C(N[C@H]1CCN(C(=O)c2ccc(OCCCN3CCCCC3)cc2)C1)c1cccc2ccccc12` [Example E158, (S)-N-[4-(3-Piperidin-1-ylpropoxy)benzoyl]-3-(naphthalene-1-carboxamidopyrrolidinedihydrochloride], the figure is below 3.16 nM; as for `O=C(c1ccc(OCCCN2CCCCC2)cc1)N1CCN(c2ccccc2)CC1` [Example E1, N-[4-(3-Piperidin-1-ylpropoxy)benzoyl]-4-phenylpiperazine dihydrochloride], below 3.16 nM.

As for `O=C1NC2(CCN(C(=O)c3ccc(OCCCN4CCCCC4)cc3)CC2)CN1Cc1ccccc1` [Example E160, 3-Benzyl-8-[4-(3-piperidin-1-ylpropoxy)benzoyl]-1,3,8-triaza-spiro[4.5]-decan-2-one], the Kb under setting [1] was below 3.16 nM.

In the case of `O=C(c1ccc(OCCCN2CCCCC2)cc1)N1CCN(C(=O)N2CCCC2)CC1` [Example E88, 1-[4-(3-Piperidin-1-ylpropoxy)benzoyl]-4-(pyrrolidine-1-carbonyl)-piperazine Hydrochloride], under setting [1], the Kb was below 3.16 nM. Regarding `O=C(c1ccc(OCCCN2CCCCC2)cc1)N1CCN(C(=O)C2CCCCC2)CC1` [Example E57, 1-[4-(3-Piperidin-1-ylpropoxy)benzoyl]-4-(1-cyclohexanecarbonyl)-piperazine hydrochloride], the Kb under setting [1] was below 3.16 nM. Still for that read-out and setting: as for `O=C(c1ccc(OCCCN2CCCCC2)cc1)N1CCN(C(=O)c2cccs2)CC1` [Example E59, 1-[4-(3-Piperidin-1-ylpropoxy)benzoyl]-4-(thiophen-2-carbonyl)-piperazine Hydrochloride], the figure is below 3.16 nM; as for `O=C(c1ccc(OCCCN2CCCCC2)cc1C(F)(F)F)N1CCCCC1` [Example E155, N-[2-Trifluoromethyl-4-(3-Piperidin-1-ylpropoxy)benzoyl]piperidine Hydrochloride], below 3.16 nM.
